Legend:
TGFβ1-induced hHSC = experiment: α-SMA ELISA in TGFβ1-induced human primary hepatic stellate cells; format: cell-based
Protocol: The human primary hepatic stellate cells (hHSC) (Innoprot) were cultured in STeCM medium (ScienCell cat #5301) that was supplemented with 2% fetal bovine serum (FBS, ScienCell cat #0010), 1% penicillin/streptomycin (ScienCell cat #0503) and stellate cell growth supplement (SteCGS; ScienCell cat #5352). Cell culture flasks were coated with Poly-L Lysine (Sigma cat #P4707) for a better adherence.
For these experiments, a checkerboard matrix was generated. ELA and component (ii) stocks were serially diluted in DMSO in 5-points series in a row (ELA) and a 11-points series in a column (component (ii)) of a 96-well plate. Subsequently, the 5×11 combination matrix was generated by 1:1 mixing of all single agent concentrations. The test concentrations for each compound were chosen based on the respective IC50 of each compound as single agent obtained by measuring α-SMA content in the HSC model stimulated with TGF-β1.
The human primary hepatic stellate cells (hHSC) (Innoprot) were cultured under standard conditions, as described above. The cells were subsequently plated at a density of 2×10^4 cells/well into 96-well plates for the measure of α-SMA by ELISA. The next day, cell-culture medium was removed, and cells were washed with PBS (Invitrogen cat #14190). hHSC were deprived for 24 hours in serum-free and SteCGS-free medium. For the treatments with ELA, component (ii) and the respective ELA/component (ii) combinations, the serum-deprived hHSC were preincubated for 1 hour with the compounds followed by addition of the profibrogenic stimuli TGF-β1 (PeproTech cat #100-21, 1 ng/mL) in serum-free and SteCGS-free medium for an additional 48 hour period.
The level of α-SMA was measured using a Sandwich ELISA. Briefly, the wells of an ELISA plate were first coated with the capture antibody (mouse monoclonal anti-ACTA2, Abnova) at 4° C. overnight. After 3 washes in PBS+0.2% Tween 20, a blocking solution consisting of PBS+0.2% BSA was added for one hour followed by another washing cycle. The cell lysates were transferred into the wells for binding to the capture antibody for a period of 2 h at room temperature. After the washing procedure, the detection antibody (biotinylated mouse monoclonal anti-ACTA2, Abnova) was added for 2 hours at room temperature followed by 3 washes. For the detection, an HRP-conjugated Streptavidin (R&D Systems cat #DY998) was first applied for 30 min at room temperature. After washing, the HRP substrate TMB (BD, #555214) was added and incubated for 7 min at room temperature in the dark. Upon oxidation, TMB forms a water-soluble blue reaction product that becomes yellow with addition of sulfuric acid (solution stop), enabling accurate measurement of the intensity at 450 nm using a spectrophotometer. The developed color is directly proportional to the amount of α-SMA present in the lysate.
The human primary hepatic stellate cells (hHSC) (Innoprot) were cultured in STeCM medium (ScienCell cat #5301) that was supplemented with 2% fetal bovine serum (FBS, ScienCell cat #0010), 1% penicillin/streptomycin (ScienCell cat #0503) and stellate cell growth supplement (SteCGS; ScienCell cat #5352). Cell-culture flasks were coated with Poly-L Lysine (Sigma cat #P4707) for a better adherence.
For these experiments, a checkerboard matrix was generated. CVC and Elafibranor stocks were serially diluted in DMSO in a 5-points series in a row (Elafibranor) and a 6-points series in a column (Cenicriviroc) of a 96-well plate. Subsequently, the […] combination matrix was generated by 1:1 mixing of all single agent concentrations. The test concentrations for each compound were chosen based on the respective IC50 of each compound as single agent obtained by measuring α-SMA content in the HSC model stimulated with TGF-β1.
The human primary hepatic stellate cells (hHSC) (Innoprot) were cultured under standard conditions, as described above. […]

[1] = test system: mice with NASH (CDFF-fed mice); experiment: Mouse fibrosing-NASH model (CDFF diet, 8 weeks); format: in vivo, C57Bl/6J mice
Protocol: The preventive effects of the combinations of elafibranor with selonsertib, GKT-831 or GS-0976 were assessed in mice fed a choline-deficient, […] diet (CDAA) supplemented with 2% cholesterol, 30% milk fat diet and high fructose corn syrup 55 (55% fructose/45% glucose for a final concentration of 42 g/L) in drinking water (Mells et al J Nutr Biochem 2015) (CDFF diet). 5-6 weeks old male C57Bl/6J mice were fed a control (CSAA) diet (n=4), CDFF (n=12), or CDFF supplemented with elafibranor (1 or 3 mg/kg/day), selonsertib (30 mg/kg/day), GKT-831 ([…]) alone or in combination (n=8 per group) for 8 weeks.
The body weight, the food and water intake were monitored twice per week. On the last day of treatment, plasma samples were obtained from retro-orbital blood sampling and mice were sacrificed after a 6 h-fasting period. The liver was rapidly excised for biochemical and histological analyses. All animal procedures were performed according to standard protocols and in accordance with the standard recommendations for the proper care and use of laboratory animals.
The liver slices were fixed in a formalin 4% solution. Then, the liver pieces were washed 30 minutes in PBS, and dehydrated in ethanol solutions (successive baths at 70, 80, 95 and 100% ethanol). The liver pieces were incubated in three different baths of Xylene (Honeywell cat #534056), followed by two baths in liquid paraffin (59° C.). Liver pieces were then put into racks that were gently filled with HISTOWAX to completely cover the tissue.
Liver sections were deparaffinized, rehydrated and incubated for 3 minutes in Mayer's Hematoxylin (Microm, cat #F/C0303). Then, the liver sections were rinsed in water and incubated 1 minute in a Eosin Y 0.5% alcoholic (VWR, cat #1.02439.0500) and Erythrosin 0.5% solution (VWR, cat #1.15936.0010), and rinsed in with ethanol. Sections were then incubated for 2 minutes in Safranin, and were eventually dehydrated and mounted using the CV Mount medium (Leica, cat #046430011).
(§1) Liver sections were deparaffinized, rehydrated and incubated for 15 minutes in a solution of Fast Green FCF 0.1% (Sigma-Aldrich, cat #F7258) before rinsing in a bath of 0.5% acetic acid (Panreac, cat #131008.1611). Then, the liver sections were rinsed in water and incubated 30 minutes in a solution of 0.1% sirius red (Direct Red 80, Fluka cat #43665) in saturated aqueous picric acid (Sigma-Aldrich cat #P6744). Sections were then dehydrated, and mounted using the CV Mount medium (Leica, cat #14046430011).
(§2) A technician blinded to the source of each liver specimen performed histological examinations. Virtual slides were generated using the Pannoramic 250 scanner from 3D Histech. For each animal, a score summarizing the main histological lesions of NASH was attributed according to the NASH Clinical Research Network (Kleiner 2005, Brunt 1999). Briefly, steatosis, lobular inflammation and hepatocyte ballooning were scored. The NAFLD Activity Score (NAS) was established for each individual as the unweighted sum of the steatosis (0-3), lobular inflammation (0-3) and the ballooning (0-2) injury grading.
(§3) Using Quant Center software (3D Histech, including Pattern Quant and Histo Quant modules), collagen-stained areas were quantified. Briefly, Pattern Quant was used to detect the tissue and measure its surface. Then, Histo Quant was used to detect the stained collagen content and measure its surface, based on a color threshold method. The fibrosis area was then expressed as the percentage of the collagen surface to the whole tissue per animal.
The hepatic collagen content was determined using the appropriate QuickZyme kit (Total collagen assay, cat #QZB-totcol2). The assay is based on the detection of hydroxyproline, which is a non-proteinogenic amino acid mainly found in the triple helix of collagen. […]

[2] = test system: fibrosing NASH-model of rats fed a CDAA+1% cholesterol diet; experiment: Chronic CDAA+1% cholesterol rat model: liver histology (picrosirius fibrosis surface, NASH lesions); format: in vivo, Wistar rats; conditions: GFT505 3 mg/kg/d, OCA 10 mg/kg/d, alone or combined; 12 weeks in diet
Protocol: (§4) The preventive effects of Elafibranor alone, OCA alone and the combination of both were assessed in a fibrosing NASH-model of rats fed a CDAA+1% cholesterol diet. 150-175 g male Wistar rats were fed a control (CSAA) diet, CDAA+1% cholesterol diet, or CDAA+1% cholesterol diet supplemented with Elafibranor 1, 3 and 10 mg/kg/day, OCA 10 and 30 mg/kg/day or combined drugs (Elafibranor 1, 3 and 10 mg/kg/day combined to OCA 10 mg/kg/day) for 12 weeks.
(§5) The body weight and the food intake were monitored twice per week. On the last day of treatment, rats were sacrificed after a 6 h fasting period. The liver was rapidly excised for biochemical and histological studies.
The liver slices were first fixed for 12 hours in formalin 4% solution. Then, the liver pieces were washed 30 minutes in PBS, and dehydrated in ethanol solutions (successive baths at 70, 80, 95 and 100% ethanol). The liver pieces were incubated in three different baths of Xylene (Sigma-Aldrich cat #534056), followed by two baths in liquid paraffin (56° C.). Liver pieces were then put into racks that were gently filled with HISTOWAX to completely cover the tissue.
The paraffin blocks containing the tissue pieces were removed from the racks and stored at room temperature. The liver blocks were cut into 3 μm slices.
Liver sections were deparaffinized, rehydrated and incubated for 3 minutes in Mayer's Hematoxylin (Microm, cat #F/C0303). Then, the liver sections were rinsed in water and incubated 1 minute in Eosin G (VWR, cat #1.09844.1000). Sections were rinsed in water then dehydrated, and mounted using the CV Mount medium (Leica, cat #14046430011).
as §1
as §2, with “hepatocytes” for “hepatocyte”, “(NAS score)” for “(NAS)”
as §3

[3] = test system: fibrosing NASH-model of rats fed a CDAA+1% cholesterol diet; experiment: Chronic CDAA+1% cholesterol rat model: hepatic collagen content (hydroxyproline); format: in vivo, Wistar rats; conditions: GFT505 3 mg/kg/d, OCA 10 mg/kg/d, alone or combined; 12 weeks in diet
Protocol: as §4, §5
The hepatic collagen content was determined using the appropriate QuickZyme kit (Total collagen assay, cat #QZB-totcol2). The assay is based on the detection of hydroxyproline, which is a non-proteinogenic amino acid mainly found in the triple helix of collagen. Thus, hydroxyproline in tissue hydrolysates can be used as a direct measure of the amount of collagen present in the tissue (without discrimination between procollagen, mature collagen and collagen degradation products).
Complete hydrolysis of tissue samples in 6M HCl at 95° C. is required before dosing the hydroxyproline. The assay results in the generation of a chromogen with a maximum absorbance at 570 nm. Results are expressed as mg of collagen/g of liver.

[4] = test system: fibrosing NASH-model of rats fed a CDAA+1% cholesterol diet; experiment: Chronic CDAA+1% cholesterol rat model: hepatic gene expression (qPCR); format: in vivo, Wistar rats; conditions: liver; GFT505 3 mg/kg/d, OCA 10 mg/kg/d, alone or combined; 12 weeks
Protocol: as §4, §5
Total RNA was isolated from rat livers using RNeasy Mini Kit (Qiagen) following manufacturer's instructions. Total RNA were reverse transcribed into cDNA using M-MLV RT (Moloney Murine Leukemia Virus Reverse Transcriptase) (Invitrogen cat #28025) in 1×RT buffer (Invitrogen), 0.5 mM DTT (Invitrogen), 0.18 mM dNTPs (Promega), 200 ng pdN6 (Amersham) and 30 U of RNase inhibitor (Promega).
Quantitative PCR was then carried out using the CFX96 TOUCH Real-Time PCR Detection System (Biorad). Briefly, the PCR reactions were performed in 96-WP format in 25 μl of total volume containing 1 μL of reverse transcription reaction, 0.5 μL of reverse and forward primers (10 pmol each), and 12.5 μl of 2×iQ SYBR Green Supermix (BioRad), using the following primer sequences:
Expression levels were normalized using the expression of RPLP0 gene as a housekeeping gene of reference in samples. For each gene, the standard curves were drawn by selecting the best points (at least three points) in order to have PCR reaction efficiency close to 100% and a correlation coefficient close to 1. Expression levels were determined using the standard curve equation for both the housekeeping gene and the target gene (taking into account the specific PCR efficiency of each target gene).

Q: Which results are given for `CCCCOCCOc1ccc(-c2ccc3c(c2)/C=C(/C(=O)Nc2ccc([S@@+]([O-])Cc4cncn4CCC)cc2)CCCN3CC(C)C)cc1` [CVC, Cenicriviroc, reference compound]?
A: antifibrotic activity (α-SMA), single agent (TGFβ1-induced hHSC; 5 μM of CVC alone): does not show any antifibrotic activity; antifibrotic activity (α-SMA), single agent (TGFβ1-induced hHSC; TGFβ1-activated hHSC, dose range): did not show a significant effect at all doses

Q: For `CN(C)c1cccc(-c2c3c(=O)n(-c4ccccc4Cl)[nH]c3cc(=O)n2C)c1` [GKT-831, 2-(2-chlorophenyl)-4-[3-(dimethylamino)phenyl]-5-methyl-1H-pyrazolo[4,3-c]pyridine-3,6(2H,5H)-dione, reference compound], which “effect on NASH and fibrosis” value ([1]; GKT-831 60 mg/kg/day alone) is on record?
A: Its value is “no beneficial effect”.

Q: How did the “effect on liver fat and body weight” value ([1]; GS-0976 30 mg/kg/day alone) turn out when `COc1ccccc1[C@H](Cn1c(=O)n(C(C)(C)C(=O)O)c(=O)c2c(C)c(-c3ncco3)sc21)OC1CCOCC1` [GS-0976, reference compound] was run?
A: The value was “mild beneficial effect”.

Q: For `CC[C@H]1[C@@H](O)[C@@H]2[C@H](CC[C@]3(C)[C@@H]([C@H](C)CCC(=O)O)CC[C@@H]23)[C@@]2(C)CC[C@@H](O)C[C@@H]12` [OCA, obeticholic acid, reference compound], which “Fibrosis surface, percentage over the untreated CDAA + 1% cholesterol rats” value [2] is on record?
A: Its value is 74% ± 45%.

Q: What about the “Hepatic collagen content, percentage over the untreated CDAA + 1% cholesterol rats” value [3] of the same compound?
A: Its value is 67% ± 23%.

Q: What about the “CCR5 mRNA level (marker of inflammation), percentage over the untreated CDAA + 1% cholesterol rats” value [4] of the same compound?
A: The value was 81% ± 28%.

Q: What about the “TGFβ1 mRNA level, percentage over the untreated CDAA + 1% cholesterol rats” value [4] of the same compound?
A: The value was 110% ± 23%.

Q: And the “TIMP1 mRNA level, percentage over the untreated CDAA + 1% cholesterol rats” value [4]?
A: The value was 110% ± 43%.

Q: And the “αSMA mRNA level, percentage over the untreated CDAA + 1% cholesterol rats” value [4]?
A: Its value is 109% ± 68%.

Q: For `Cc1cc(F)c(C(=O)Nc2cccc(-c3nncn3C(C)C)n2)cc1-n1cnc(C2CC2)c1` [Selonsertib, reference compound], which “hepatic fibrosis (histology, hepatic collagen content, PIIINP and TIMP-1)” value ([1]; elafibranor 3 mg/kg/day, selonsertib 30 mg/kg/day, alone or combined) is on record?
A: Its value is “improved hepatic fibrosis in this model, albeit to a minor extent than elafibranor”.

— patent US11478440B2, “Combination of Elafibranor or derivatives thereof with an anti-NASH, anti-fibrotic or anti-cholestatic agent” (GENFIT, priority 2017, dated 2022)
